According to ChEMBL document CHEMBL1201862, “PubChem BioAssay data set” (2004):
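Cultured in 96-well plates, cells were exposed to test compound for 48 hours across five concentrations. GI50 = concentration required for 50% inhibition of growth.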 The source made the active and inactive calls. Cut-off read from the data, not from the text of the source: active = GI50 up to about 1.1 µM and inactive = higher.

Assays:
Test in all cases: NCI anticancer screen, dose series, 48 h
RXF 393 = tested on: RXF 393
CAKI-1 = tested on: CAKI-1
A549 = tested on: A549
SK-MEL-5 = tested on: SK-MEL-5
U-251 = tested on: U-251
OVCAR-5 = tested on: OVCAR-5
OVCAR-4 = tested on: OVCAR-4
SK-OV-3 = tested on: SK-OV-3
NCI-H460 = tested on: NCI-H460
CCRF-CEM = tested on: CCRF-CEM
OVCAR-8 = tested on: OVCAR-8
Malme-3M = tested on: Malme-3M
SF-539 = tested on: SF-539
SF-268 = tested on: SF-268
MDA-N = tested on: MDA-N
SR = tested on: SR
HCT-116 = tested on: HCT-116
SW-620 = tested on: SW-620
SF-295 = tested on: SF-295
NCI-H226 = tested on: NCI-H226
PC-3 = tested on: PC-3
HOP-92 = tested on: HOP-92
NCI-H23 = tested on: NCI-H23
COLO 205 = tested on: COLO 205
SN12C = tested on: SN12C
M14 = tested on: M14
TK-10 = tested on: TK-10
SK-MEL-28 = tested on: SK-MEL-28
OVCAR-3 = tested on: OVCAR-3
SK-MEL-2 = tested on: SK-MEL-2
T47D = tested on: T47D
HCC 2998 = tested on: HCC 2998
Hs-578T = tested on: Hs-578T
LOX IMVI = tested on: LOX IMVI
786-0 = tested on: 786-0
HOP-62 = tested on: HOP-62
MDA-MB-435 = tested on: MDA-MB-435
ACHN = tested on: ACHN
UACC-257 = tested on: UACC-257
UACC-62 = tested on: UACC-62
NCI/ADR-RES = tested on: NCI/ADR-RES
IGROV-1 = tested on: IGROV-1
MOLT-4 = tested on: MOLT-4
KM12 = tested on: KM12
HCT-15 = tested on: HCT-15
K562 = tested on: K562
NCI-H522 = tested on: NCI-H522
HT-29 = tested on: HT-29
DU-145 = tested on: DU-145
UO-31 = tested on: UO-31
SNB-19 = tested on: SNB-19
A498 = tested on: A498
BT-549 = tested on: BT-549
MDA-MB-231 = tested on: MDA-MB-231
SNB-75 = tested on: SNB-75
EKVX = tested on: EKVX

Which GI50 (RXF 393) does the source give for `C[C@H](N)C(=O)Nc1ccc(-c2nc3ccccc3s2)cc1` here?
The GI50 was 29.3 µM (inactive).

What about the GI50 (CAKI-1) of the same molecule?
Its GI50 is 17.1 µM (inactive).

And the GI50 (A549)?
Its GI50 is 15.6 µM (inactive).

And the GI50 (SK-MEL-5)?
Its GI50 is 20.1 µM (inactive).

What about the GI50 (U-251) of the same molecule?
The GI50 was 16.9 µM (inactive).

What about the GI50 (OVCAR-5) of the same molecule?
The GI50 was 18.7 µM (inactive).

What about the GI50 (OVCAR-4) of the same molecule?
Its GI50 is 16.4 µM (inactive).

What about the GI50 (SK-OV-3) of the same molecule?
The GI50 was 22.5 µM (inactive).

And the GI50 (NCI-H460)?
The GI50 was 16.9 µM (inactive).

What about the GI50 (CCRF-CEM) of the same molecule?
The GI50 was 10.2 µM (inactive).

And the GI50 (OVCAR-8)?
The GI50 was 25.6 µM (inactive).

And the GI50 (Malme-3M)?
Its GI50 is 19.1 µM (inactive).

And the GI50 (SF-539)?
The GI50 was 36.9 µM (inactive).

What about the GI50 (SF-268) of the same molecule?
The GI50 was 41.3 µM (inactive).

What about the GI50 (MDA-N) of the same molecule?
Its GI50 is 18.7 µM (inactive).

What about the GI50 (SR) of the same molecule?
Its GI50 is 15.1 µM (inactive).

And the GI50 (HCT-116)?
Its GI50 is 15.2 µM (inactive).

What about the GI50 (SW-620) of the same molecule?
The GI50 was 17.2 µM (inactive).

What about the GI50 (SF-295) of the same molecule?
Its GI50 is 18.7 µM (inactive).

What about the GI50 (NCI-H226) of the same molecule?
Its GI50 is 26.8 µM (inactive).

What about the GI50 (PC-3) of the same molecule?
Its GI50 is 20.2 µM (inactive).

And the GI50 (HOP-92)?
Its GI50 is 26.4 µM (inactive).

What about the GI50 (NCI-H23) of the same molecule?
Its GI50 is 32.2 µM (inactive).

What about the GI50 (COLO 205) of the same molecule?
The GI50 was 18.6 µM (inactive).

What about the GI50 (SN12C) of the same molecule?
Its GI50 is 24.8 µM (inactive).

What about the GI50 (M14) of the same molecule?
Its GI50 is 10.9 µM (inactive).

What about the GI50 (TK-10) of the same molecule?
The GI50 was 24.5 µM (inactive).

What about the GI50 (SK-MEL-28) of the same molecule?
The GI50 was 18.5 µM (inactive).

And the GI50 (OVCAR-3)?
The GI50 was 18.3 µM (inactive).

And the GI50 (SK-MEL-2)?
The GI50 was 28.6 µM (inactive).

And the GI50 (T47D)?
The GI50 was 17.5 µM (inactive).

And the GI50 (HCC 2998)?
Its GI50 is 20.9 µM (inactive).

And the GI50 (Hs-578T)?
The GI50 was 37.8 µM (inactive).

And the GI50 (LOX IMVI)?
The GI50 was 19.1 µM (inactive).

And the GI50 (786-0)?
Its GI50 is 15.7 µM (inactive).

What about the GI50 (HOP-62) of the same molecule?
Its GI50 is 26.5 µM (inactive).

What about the GI50 (MDA-MB-435) of the same molecule?
Its GI50 is 16.9 µM (inactive).

What about the GI50 (ACHN) of the same molecule?
Its GI50 is 17.4 µM (inactive).

And the GI50 (UACC-257)?
Its GI50 is 39.1 µM (inactive).

What about the GI50 (UACC-62) of the same molecule?
The GI50 was 18.5 µM (inactive).

What about the GI50 (NCI/ADR-RES) of the same molecule?
Its GI50 is 28.6 µM (inactive).

And the GI50 (IGROV-1)?
The GI50 was 15.2 µM (inactive).

What about the GI50 (MOLT-4) of the same molecule?
The GI50 was 16.3 µM (inactive).

And the GI50 (KM12)?
The GI50 was 16.3 µM (inactive).

What about the GI50 (HCT-15) of the same molecule?
The GI50 was 17.7 µM.

What about the GI50 (K562) of the same molecule?
Its GI50 is 21.5 µM (inactive).

And the GI50 (NCI-H522)?
Its GI50 is 18.5 µM (inactive).

What about the GI50 (HT-29) of the same molecule?
The GI50 was 20.9 µM (inactive).

What about the GI50 (DU-145) of the same molecule?
The GI50 was 18.4 µM (inactive).

And the GI50 (UO-31)?
The GI50 was 12.3 µM (inactive).

What about the GI50 (SNB-19) of the same molecule?
The GI50 was 22.4 µM (inactive).

And the GI50 (A498)?
The GI50 was 30.1 µM (inactive).

And the GI50 (BT-549)?
Its GI50 is > 100 µM (inactive).

What about the GI50 (MDA-MB-231) of the same molecule?
Its GI50 is 18.4 µM (inactive).

What about the GI50 (SNB-75) of the same molecule?
The GI50 was 18 µM (inactive).

What about the GI50 (EKVX) of the same molecule?
The GI50 was 11.8 µM (inactive).
